Like-named read-outs stand apart in the source and are kept apart here.
Legend:
[1] = molecular target: Angiotensin Converting Enzyme (ACE) (UniProt P12822); experiment: fluorimetric ACE assay with HHL substrate, 96-well format; type: biochemical; conditions: for reduction of ACE activity (formation of L-histidyl-L-leucine): compound incubated with enzyme at 37° C. for 30 min
Experimental: To determine whether the compounds of the presently-disclosed subject matter were capable of reducing the enzymatic activity of Angiotensin Converting Enzyme (ACE), an ACE assay was carried out according to the standard protocols (see, e.g., Schwager, et al. A high-throughput fluorimetric assay for angiotensin I-converting enzyme, Nature Protocols, 2006; 1 (4): 1961-1964, which is incorporated herein by this reference). The ACE assay involved a fluorimetric procedure in which the substrate hippury-L-histidyl-L-leucine (HHL) was used, and the fluorescent adduct of the enzyme-catalyzed product L-histidyl-L-leucine was quantified fluorimetrically. […] The results from the assay were analyzed in a 96-well plate reader with each concentration measured in triplicate.
Briefly, in a total of 250 μL assay volume, 10 μL of ACE enzyme (Sigma Chemical Co., St. Louis, Mo.) and 10 μL of either 1-(6,8-dimercaptooctanyl)pyrrolidine-2-carboxylic acid or prolyl lipoic acid (Formula (III) was added. Both compounds were incubated with enzyme at 37° C. for 30 min. The ACE substrate HHL, 6 μL in buffer, was then added to each well followed by incubation at 45° C. for 30 min. 170 μL of 0.3M sodium hydroxide solution was added to above solution followed by the addition of phalaldehyde solution in methanol. The mixture was then allowed to shake for 5 min. This step was followed by the addition of 32 μL of 2N hydrochloric acid to each well and subsequent measurement of the fluorescence at an excitation wavelength of 360 nm and an emission wavelength of 480 nm. Three controls were used to compare the readings, with the controls including wells without the enzyme, wells without the compounds, and wells without the HHL enzymatic substrate.
To further examine the IC50 value in relation to the absolute amounts of thiol groups of the 1-(6,8-dimercaptooctanyl)pyrrolidine-2-carboxylic acid compound, however, the amount of thiol groups in the reaction mixtures was also measured according to Ellman's method (see, e.g. Simpson R J, Estimation of free thiols and disulfide bonds using Ellman's reagent, CSHL Press, Cold Spring Harbor, N.Y., 2003; and, Ellman G L, Tissue sulfhydral groups, Arch. Biochem. Biophys., 1959; 82: 70-77, each of which are incorporated herein by this reference). […] The TNB^2− can then be quantified in a spectrophotometer by measuring the absorbance of visible light at 412 nm, using an extinction coefficient of 14,150M^−1 cm^−1 for dilute buffer solutions, and a coefficient of 13,700 M^−1 cm^−1 for high salt concentrations, such as 6 M guanidinium hydrochloride or 8 M urea. […] The absorbance was measured at 412 nm. […]

[2] = test system: pre-constricted rat aortic segments; experiment: vasodilation of phenylephrine pre-constricted aortic rings in myograph; set-up: species or system male Sprague-Dawley Rats; conditions: for relaxation of pre-constricted rat aortic segments: phenylephrine 0.1 μM pre-constriction, after 4-hour incubation with 44 mM glucose
Experimental: To determine the effect of lipoic acid and prolyl lipoic acid (Formula (III)) on vasodilation, aortas from male Sprague-Dawley Rats (n=2) were utilized. Briefly, each animal was first sacrificed and their aortas were removed. The aortas were then incubated in phosphate-buffered-saline (PBS) containing 44 mM glucose for 4 hours. Eight 5-mm ring segments of thoracic aorta were then suspended in a myograph chamber filled with a Krebs buffer of the following composition: NaCl, 118.3; KCl, 4.69; CaCl2, 1.87; MgSO4, 1.20; K2HPO4, 1.03; NaHCO3 25.0; and glucose 11.1; all values in mM, pH 7.40. During the following hour, the resting tension was increased to optimize constrictions due to exposure to KCl. The vessel segments were then pre-constricted with phenylephrine (PE; 0.1 μM) and were subjected to prolyl lipoic acid (Formula (III)) or lipoic acid. Vasodilation in the rat aortic rings in response to L-prolyl lipoic acid (1×10^−4 M) or lipoic acid (1×10^−4 M) (both dissolved in aqueous media) was then measured after a 4-hour incubation with glucose (44 mM). Endothelial cell function in the aortic rings was also measured by pre-constricting the aortic rings to the EC50 of phenylephrine and then subjecting the rings to a maximum acetylcholine dose (10^−5M).

[3] = test system: spontaneously hypertensive stroke prone rats (SHRSP); experiment: blood pressure by intra-arterial catheter / radio-telemetry in hypertension model; type: in vivo, rat
Text: To determine the effect of prolyl lipoic acid (Formula (III)) in an animal model of hypertension, spontaneously hypertensive stroke prone rats (SHRSP) were first procured from Charles River at the age of 6 weeks (Charles River Laboratories, Wilmington, Mass., U.S.A.). After a period of acclimatization for 4 weeks, the rats were then implanted with intra-arterial catheters in the abdominal aorta along with a radio-telemetry monitoring device to assess systolic blood pressure. Briefly, to implant the radio-telemetry devices, the operative procedure involved anesthetizing the animals with 375 mg/kg of 2,2,2-tribromoethanol (Sigma Chemical Co., St. Louis, Mo.). An incision was then made in the abdomen and the aorta was exposed. A 0.4 mm catheter attached to a combination pressure transducer, transmitter, and battery, all encapsulated in a implantable micro-miniature electronic monitor (PA-C20, Data Sciences International, St. Paul, Minn.), was then inserted.
Following implantation of the radio-telemetry devices, the animals were allowed to recover and the aortic pressure of each animal was monitored continuously. Once the animals sufficiently recovered, the rats then received 50 mg/kg of prolyl lipoic acid, dissolved in aqueous media, in a single dose. The blood pressures were then measured over a period of 12 hours and compared to the previous 12 hour period. […]
During the 6 week experimental period, blood pressure measurements were performed in a sub-group of 4 animals randomized to prolyl lipoic acid by intra-arterial catheter placement in the infra-renal aorta and acute administration of the prolyl lipoic acid prior to administration of drug. Additionally, four SHRSP rats (12 weeks old) were implanted with radio-telemetry transmitters (DataSciences Inc., St. Paul, Minn.) into their abdominal aortas and blood pressure was measured using the DSI system (DataSciences Inc.). In these later experiments, blood pressure was recorded continuously over 24-hour periods and reported as the change in blood pressure in the 12-hour period following the administration of the agent.

[4] = test system: spontaneously hypertensive stroke prone rats (SHRSP); experiment: endothelial function by myography of aortic segments after 6 weeks of treatment; type: in vivo, rat; conditions: 50 mg/kg daily IP, pre-contraction 0.3 μM phenylephrine
Experimental: (§1) To further examine the effects of prolyl lipoic acid (Formula (III)) on hypertension, the effect of prolyl lipoic acid was examined in spontaneously hypertensive rats over a longer time period. Briefly, spontaneously hypertensive rats (SHRSP rats, 10 weeks of age, n=10/group) were randomized to placebo or prolyl lipoic acid (50 mg/kg) groups for a duration of 6 weeks. The animals were housed 2 to a cage and were given Harlan-Teklad Laboratory Rodent Diet ad libitum (Harlan Laboratories, Indianapolis, Ind.). Prolyl lipoic acid or saline placebo was administered to the rats by daily intraperitoneal (IP) dosing.
Following the completion of the six week period, the animals were euthanized at week 17 by lethal pentobarbital injection and tissues were removed from the animal. Upon removal of the tissues, endothelial function was assessed. It is known that endothelial function can refer to the unimpaired production of or availability of NO and/or a balance in the relative contribution of endothelium-derived relaxing and contracting factors (such as ET-1, angiotensin, and oxidants). […] As such, once the tissues were removed from the animals, endothelial cell function was assessed in the experimental groups by myography as percent-relaxation to acetylcholine or sodium nitroprusside subsequent to pre-contraction with 0.3 μM phenylephrine.

[5] = test system: inflammatory genes (ICAM1, IL-6, IL-1β, MCP1, TGF-β1, VCAM1, TNF-α); experiment: inflammatory gene expression (mRNA transcript levels) in tissues after 6 weeks of treatment; type: in vivo, rat; conditions: 50 mg/kg daily IP
Experimental: as §1
Furthermore, inflammatory gene expression was assessed in the aorta, heart, brain and kidney by probing for mRNA transcript levels of the various inflammatory genes. Aortic and cardiac collagen synthesis was also assessed by Picrosirius Red staining and Massom-Trichrome staining and quantified by an automated thresholding program.

[6] = test system: spontaneously hypertensive stroke prone rats (SHRSP); experiment: histology of organ sections (H&E wall thickness, CD68 staining) after 6 weeks of treatment; type: in vivo, rat; conditions: 50 mg/kg daily IP
Experimental: as §1
Additionally, four to eight sections of each organ were stained with CD68 or H&E for 10 animals (5 in each group) and images were obtained at 200× by bright-field microscopy. MetaMorph software was used for automated thresholding. The percentage of thresholded area of the picture was recorded and reported. Additionally, about 12 organ sections per rat were prepared for 10 of the rats (5 in each group). These sections were 5 microns in size and were stained with hematoxylin and eosin (H&E). Images were obtained at 40× (using bright-field microscopy and analyzed using MetaMorph software. For each image, the external elastic lamina of the aorta was traced using a drawing tool, and this area was logged. The luminal area was also measured. Thus, the tunica intima and tunica media were included in these measurements, not tunica adventitia. The wall thickness was calculated by subtracting the luminal area from the wall area.

Angiotensin Converting Enzyme (ACE), sequence (P12822 whole entry): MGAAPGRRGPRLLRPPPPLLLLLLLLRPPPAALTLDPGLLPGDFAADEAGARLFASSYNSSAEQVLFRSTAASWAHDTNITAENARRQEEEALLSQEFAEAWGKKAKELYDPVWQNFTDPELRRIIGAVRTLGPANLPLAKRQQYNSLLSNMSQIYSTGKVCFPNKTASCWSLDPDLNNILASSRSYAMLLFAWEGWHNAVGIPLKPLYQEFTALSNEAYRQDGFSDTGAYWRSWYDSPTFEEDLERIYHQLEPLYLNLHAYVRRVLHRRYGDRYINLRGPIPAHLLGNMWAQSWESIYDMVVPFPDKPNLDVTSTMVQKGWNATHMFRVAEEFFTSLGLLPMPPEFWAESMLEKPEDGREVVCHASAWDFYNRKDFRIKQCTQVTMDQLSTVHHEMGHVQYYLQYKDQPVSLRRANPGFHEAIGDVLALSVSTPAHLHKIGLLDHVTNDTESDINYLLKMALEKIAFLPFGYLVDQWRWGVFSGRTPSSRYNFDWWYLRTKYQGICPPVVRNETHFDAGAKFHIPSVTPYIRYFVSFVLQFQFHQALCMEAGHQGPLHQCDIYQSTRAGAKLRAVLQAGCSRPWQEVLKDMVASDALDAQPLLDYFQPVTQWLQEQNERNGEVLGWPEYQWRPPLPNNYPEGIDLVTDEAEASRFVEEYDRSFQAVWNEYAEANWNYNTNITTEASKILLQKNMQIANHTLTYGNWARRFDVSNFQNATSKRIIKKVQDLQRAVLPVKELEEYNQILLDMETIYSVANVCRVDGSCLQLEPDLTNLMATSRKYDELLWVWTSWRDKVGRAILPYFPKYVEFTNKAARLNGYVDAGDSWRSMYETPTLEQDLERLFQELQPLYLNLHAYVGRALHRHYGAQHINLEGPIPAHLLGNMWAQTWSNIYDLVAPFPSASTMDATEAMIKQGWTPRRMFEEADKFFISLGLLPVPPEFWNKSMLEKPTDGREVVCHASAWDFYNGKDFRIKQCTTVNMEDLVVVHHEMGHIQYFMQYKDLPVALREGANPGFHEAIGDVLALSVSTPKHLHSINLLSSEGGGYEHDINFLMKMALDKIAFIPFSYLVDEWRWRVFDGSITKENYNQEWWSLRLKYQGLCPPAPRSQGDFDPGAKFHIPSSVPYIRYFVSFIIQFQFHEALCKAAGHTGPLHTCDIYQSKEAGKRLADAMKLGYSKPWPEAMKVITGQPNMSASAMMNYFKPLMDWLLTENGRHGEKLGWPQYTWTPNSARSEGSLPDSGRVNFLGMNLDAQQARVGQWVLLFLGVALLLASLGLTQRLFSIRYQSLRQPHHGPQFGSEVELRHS

## O=C(O)C1CCCN1C(=O)CCCCC(S)CCS (stereo not drawn)
[1]
  reduction of ACE activity (formation of L-histidyl-L-leucine): effectively reduce ACE activity
[1]; corrected for thiol content by Ellman's method, read-out: IC50 value recalculated after thiol quantification
  IC50: 6.6 µM
[1]; from plot of fluorescence counts against concentration (FIG. 13), read-out: IC50 value, initially found
  IC50: ~29 µM

## O=C(O)CCCCC1CCSS1 (stereo not drawn) [lipoic acid, alpha lipoic acid, reference compound]
[2]; 1×10^−4 M
  relaxation of pre-constricted rat aortic segments: relaxed pre-constricted rat aortic segments

## O=C(O)C1CCCN1C(=O)CCCCC1CCSS1 [prolyl lipoic acid, L-prolyl lipoic acid]
[1]
  reduction of ACE activity (formation of L-histidyl-L-leucine): effectively reduce ACE activity
[2]; 1×10^−4 M
  relaxation of pre-constricted rat aortic segments: relaxed pre-constricted rat aortic segments
[2]; 1×10^−4 M, same aortic ring test (FIG. 15)
  relaxation as compared to lipoic acid: increase in relaxation as compared to lipoic acid
[2]; rings pre-constricted to EC50 of phenylephrine, acetylcholine 10^−5M
  endothelial function in aortic rings (vasodilation following acetylcholine): improve endothelial function
[3]; 50 mg/kg single dose, 12 hours after versus previous 12 hour period
  blood pressure after a single dose: significantly reduced blood pressure
[3]; 50 mg/kg versus captopril 100 mg/kg (FIG. 20)
  effects on blood pressure relative to captopril: comparable to the angiotensin converting enzyme inhibitor, captopril
[3]; 50 mg/kg, SHRSP rats, FIGS. 18-19
  blood pressure, acute administration: acutely lowered blood pressure
[4]
  endothelial function (relaxation to acetylcholine or sodium nitroprusside): improved endothelial function
[5]; aorta
  inflammatory gene expression in aorta: markedly reduced inflammatory gene expression
[5]; brain
  ICAM1 expression in brain: some reductions in expression
  IL-6 expression in brain: some reductions in expression
[5]; brain, compared with other tissues
  reduction in inflammatory gene expression in brain: not as pronounced
[5]; heart
  inflammatory gene expression in heart: markedly reduced inflammatory gene expression
[5]; kidney
  inflammatory gene expression in kidney: markedly reduced inflammatory gene expression
[6]
  CD68 expression in the brain: without affecting CD68 expression
  CD68 expression in the kidneys: without affecting CD68 expression
  CD68 expression in the myocardium: without affecting CD68 expression
  inflammatory cell recruitment to the heart: favorable effects
  inflammatory cell recruitment to the kidney: favorable effects
[6]; H&E sections
  aortic medial hypertrophy: effects in reducing aortic medial hypertrophy

Reference: US20110257130A1 (priority 2008, published 2011)
